Reference: patent US9949479B2 (priority 2015, dated 2018)
Several values for one entry are separate records, joined by “and”; a condition that tells them apart may be missing. Equal values may be shown once. Read-outs that look alike come from different tables or passages of the source.

Experiments:
Tri5 gene = format: cell-based, Fusarium asiaticum
leaf blight [1] = format: in vivo; conditions: dose as in E145
rust [2] = format: in vivo; conditions: dose as in E154
[3] = format: in vivo, barley; conditions: dose as in E154
leaf blight [4] = format: in vivo; conditions: dose as in E162
powdery mildew [5] = format: in vivo; conditions: dose as in E162
rust [6] = format: in vivo; conditions: dose as in E162
wheat scab [7] = format: in vivo, Fusarium spp.
powdery mildew [8] = format: in vivo
[9] = design: species or system wheat; conditions: in vivo
wheat scab [10] = format: in vivo, Fusarium spp.; remark: listed apart in the source
leaf blight [11] = format: in vivo
powdery mildew [12] = format: in vivo; remark: listed apart in the source
rust [13] = format: in vivo
leaf blight [14] = format: in vivo; remark: listed apart in the source
[15] = format: in vivo, wheat
[16] = system: DON toxin synthesis capability of thalli; design: species or system Fusarium spp.; conditions: in vivo
wheat scab [17] = format: in vivo, Fusarium spp.; remark: listed apart in the source
[18] = format: in vivo, wheat; conditions: vs control; dose as in E145
wheat scab [19] = format: in vivo, Fusarium spp.; remark: listed apart in the source
[20] = Serial 5: preparation 100 g/mu, jinggangmycin 20 g ai./mu alone
[21] = Serial 6: preparation 80 g/mu, jinggangmycin 16 g ai./mu alone
[22] = Serial 7: preparation 40 g/mu, jinggangmycin 8 g ai./mu alone
[23] = Serial 8: preparation 20 g/mu, jinggangmycin 4 g ai./mu alone
[24] = Serial 5: preparation 100 g/mu, jinggangmycin 20, metconazole 0 g ai./mu
[25] = Serial 5: preparation 75 g/mu, jinggangmycin 15 g ai./mu alone
[26] = Serial 6: preparation 60 g/mu, jinggangmycin 12 g ai./mu alone
[27] = Serial 7: preparation 45 g/mu, jinggangmycin 9 g ai./mu alone
[28] = Serial 8: preparation 30 g/mu, jinggangmycin 6 g ai./mu alone
[29] = Serial 9: preparation 100 g/mu, metconazole 20 g ai./mu alone
[30] = Serial 10: preparation 80 g/mu, metconazole 16 g ai./mu alone
[31] = Serial 11: preparation 40 g/mu, metconazole 8 g ai./mu alone
[32] = Serial 12: preparation 20 g/mu, metconazole 4 g ai./mu alone
[33] = Serial 6: preparation 100 g/mu, jinggangmycin 0, metconazole 20 g ai./mu
[34] = Serial 9: preparation 37.5 g/mu, metconazole 7.5 g ai./mu alone
[35] = Serial 10: preparation 30 g/mu, metconazole 6 g ai./mu alone
[36] = Serial 11: preparation 22.5 g/mu, metconazole 4.5 g ai./mu alone
[37] = Serial 12: preparation 15 g/mu, metconazole 3 g ai./mu alone

Structure (SMILES): OCC1=C[C@H](NC2C[C@H](CO)[C@@H](OC3O[C@H](CO)[C@@H](O)[C@H](O)[C@H]3O)[C@H](O)[C@H]2O)[C@H](O)[C@@H](O)[C@@H]1O (stereo partly drawn) [Jinggangmycin A, jinggangmycin A]
- Rate of Inhibition on Relative Expression Level of Tri5 Gene (Tri5 gene): 66% and 84% and 87% and 90% and 59%
- Disease Index Prevention Effect % Leaf Blight (leaf blight [1]): 8.3% and 7.8% and 0%
- Disease Index Prevention Effect % Rust (rust [2]): 0%
- Grain Toxin Content [3]: 6.67 mg of DON/Kg of grain and 5.28 mg of DON/Kg of grain and 4.62 mg of DON/Kg of grain and 3.86 mg of DON/Kg of grain and 3.49 mg of DON/Kg of grain
- Disease Index Prevention Effect % Leaf Blight (leaf blight [4]): 8.5% and 7.9% and 0%
- Disease Index Prevention Effect % Powdery Mildew (powdery mildew [5]): 7.3% and 4.4% and 4.5% and 0%
- Disease Index Prevention Effect % Rust (rust [6]): 5.1% and 3.6% and 0%
- Disease Index Prevention Effect % Head Blight (wheat scab [7]; [20]): 32.0%
- Disease Index Prevention Effect % Head Blight (wheat scab [7]; [21]): 25.4%
- Disease Index Prevention Effect % Head Blight (wheat scab [7]; [22]): 14.7%
- Disease Index Prevention Effect % Head Blight (wheat scab [7]; [23]): 0%
- Disease Index Prevention Effect % Powdery Mildew (powdery mildew [8]; [20]): 12.6%
- Disease Index Prevention Effect % Powdery Mildew (powdery mildew [8]; [21]): 11.9%
- Disease Index Prevention Effect % Powdery Mildew (powdery mildew [8]; [22]): 0%
- Disease Index Prevention Effect % Powdery Mildew (powdery mildew [8]; [23]): 0%
- Thousand Kernel Weight [9]: 39.6 g and 39.0 g and 37.9 g
- Disease Index Prevention Effect % Head Blight (wheat scab [10]; [24]): 40.2%
- Disease Index Prevention Effect % Leaf Blight (leaf blight [11]; [24]): 7.8%
- Disease Index Prevention Effect % Powdery Mildew (powdery mildew [12]; [24]): 10.6%
- Disease Index Prevention Effect % Rust (rust [13]; [24]): 6.5%
- Disease Index Prevention Effect % Leaf Blight (leaf blight [14]; Serial 5: preparation 100, jinggangmycin 20, metconazole 0 g ai./mu): 7.8%
- Grain Toxin Content mg of DON/kg of grain [15, 25]: 2.86 mg of DON/kg of grain
- Toxin Reduction Percentage % [15, 25]: 36.7%
- Grain Toxin Content mg of DON/kg of grain [15, 26]: 3.82 mg of DON/kg of grain
- Toxin Reduction Percentage % [15, 26]: 15.5%
- Grain Toxin Content mg of DON/kg of grain [15, 27]: 4.02 mg of DON/kg of grain
- Toxin Reduction Percentage % [15, 27]: 11.1%
- Grain Toxin Content mg of DON/kg of grain [15, 28]: 4.14 mg of DON/kg of grain
- Toxin Reduction Percentage % [15, 28]: 8.4%

Structure (SMILES): CC1(C)CCC(Cc2ccc(Cl)cc2)C1(O)Cn1cncn1 (stereo not drawn) [Metconazole]
- DON Synthesis Capability [16]: 20.16 and 19.80 and 19.96 and 19.54 and 19.20 and 19.38
- Theoretical Prevention Effect of Mixed Agent on Head Blight (wheat scab [17]; Abbott method, dose as in E145): 65.8 and 61.3 and 48.4 and 39.6
- Disease Index Prevention Effect % Head Blight (wheat scab [17]; sprayed twice, g ai. agent/mu, Jinggangmycin+Metconazole by row: r16 1+15, r17 3+10, r18 5+5, r19 5+10, r20 5+15, r21 10+3, r22 10+10, r23 10+15, r24 50+3, r25 50+10, r26 50+15, r27 100+5, r28 100+10, Jinggangmycin alone r29 100, r30 50, r31 10, r32 5, r33 3, r34 1, Metconazole alone r35 15, r36 10, r37 5, r38 3, r39 Carbendazim 40): 65.8% and 61.3% and 48.4% and 39.6%
- DON Reduction Percentage (%) [18]: 88.4% and 79.9% and 71.4% and 66.6%
- Disease Index Prevention Effect % Rust (rust [2]): 63.0% and 68.2% and 76.1% and 88.2%
- Grain Toxin Content [3]: 3.86 mg of DON/Kg of grain and 3.70 mg of DON/Kg of grain and 3.09 mg of DON/Kg of grain and 3.26 mg of DON/Kg of grain
- Toxin Reduction Percentage % ([3]; vs control): 54.7% and 56.6% and 63.8% and 61.8%
- Theoretical Prevention Effect on Head Blight % (wheat scab [19]; Abbott method, dose as in E162): 66.7% and 61.8% and 40.9% and 33.6%
- Disease Index Prevention Effect % Head Blight (wheat scab [19]; tank mixture sprayed twice, g ai. agent/mu, Jinggangmycin+Metconazole by row: r11 3+15, r12 5+10, r13 5+5, r14 10+5, r15 50+3, r16 100+3, Jinggangmycin alone r17 100, r18 50, r19 10, r20 5, r21 3, Metconazole alone r22 15, r23 10, r24 5, r25 3, r26 Polyketone 57): 66.7% and 61.8% and 50.9% and 33.6%
- Disease Index Prevention Effect % Head Blight (wheat scab [7]; [29]): 78.2%
- Disease Index Prevention Effect % Head Blight (wheat scab [7]; [30]): 71.2%
- Disease Index Prevention Effect % Head Blight (wheat scab [7]; [31]): 67.1%
- Disease Index Prevention Effect % Head Blight (wheat scab [7]; [32]): 52.0%
- Disease Index Prevention Effect % Powdery Mildew (powdery mildew [8]; [29]): 83.2%
- Disease Index Prevention Effect % Powdery Mildew (powdery mildew [8]; [30]): 75.4%
- Disease Index Prevention Effect % Powdery Mildew (powdery mildew [8]; [31]): 69.2%
- Disease Index Prevention Effect % Powdery Mildew (powdery mildew [8]; [32]): 60.6%
- Thousand Kernel Weight [9]: 43.2 g and 42.6 g and 39.8 g
- Disease Index Prevention Effect % Head Blight (wheat scab [10]; [33]): 83.4%
- Disease Index Prevention Effect % Leaf Blight (leaf blight [11]; [33]): 84.6%
- Disease Index Prevention Effect % Powdery Mildew (powdery mildew [12]; [33]): 98.2%
- Disease Index Prevention Effect % Rust (rust [13]; [33]): 100%
- Disease Index Prevention Effect % Leaf Blight (leaf blight [14]; Serial 6: preparation 100, jinggangmycin 0, metconazole 20 g ai./mu): 80.6%
- Grain Toxin Content mg of DON/kg of grain [15, 34]: 2.01 mg of DON/kg of grain
- Toxin Reduction Percentage % [15, 34]: 55.5%
- Grain Toxin Content mg of DON/kg of grain [15, 35]: 2.17 mg of DON/kg of grain
- Toxin Reduction Percentage % [15, 35]: 52.0%
- Grain Toxin Content mg of DON/kg of grain [15, 36]: 2.06 mg of DON/kg of grain
- Toxin Reduction Percentage % [15, 36]: 54.4%
- Grain Toxin Content mg of DON/kg of grain [15, 37]: 3.12 mg of DON/kg of grain
- Toxin Reduction Percentage % [15, 37]: 31.0%
